Values quoted from earlier work in patent US20190231770A1, “COMBINATION COMPOSITIONS COMPRISING FXR AGONISTS FOR TREATING OR PREVENTING A FIBROTIC, CIRRHOTIC DISEASE OR DISORDER” (Novartis AG, priority 2016, published 2019).

Assays:
[1] = long term administration
[2] = tested on: caspases 1, 2, 3, 6, 7, 8 and 9
[3] = patients with chronic liver diseases
[4] = pre-clinical models of NASH and cold ischemia and reperfusion injury; clinical trials in NASH/NAFLD, portal hypertension and cirrhosis

LDL cholesterol [1] | pruritus [1] | SMILES | inhibition of caspases 1, 2, 3, 6, 7, 8 and 9 [2] | serum aspartate aminotransferase (AST) and alanine aminotransferase (ALT) levels [3] | efficacy [4]
increased LDL cholesterol | associated with pruritus | CC[C@H]1[C@@H](O)[C@@H]2[C@H](CC[C@]3(C)[C@@H]([C@H](C)CCC(=O)O)CC[C@@H]23)[C@@]2(C)CC[C@@H](O)C[C@@H]12 [obeticholic acid, Obeticholic acid] |  |  | 
 |  | C[C@H](NC(=O)C(=O)Nc1ccccc1C(C)(C)C)C(=O)N[C@@H](CC(=O)O)C(=O)COc1c(F)c(F)cc(F)c1F [emricasan, 3-[2-[(2-tert-butyl-phenylaminooxalyl)-amino]-propionylamino]-4-oxo-5-(2,3,5,6-tetrafluoro-phenoxy)-pentanoic acid] | inhibits | lower | demonstrated efficacy
